Results from US20180028477A1, “TREATMENT OF CARDIAC REMODELING AND OTHER HEART CONDITIONS” (C & C BIOPHARMA, LLC, priority 2013, published 2018).
Values joined by “and” are separate entries in the source; they are usually repeats but may differ in a detail not shown here. Equal values may be shown once. “Also recorded” adds a separate entry of the source.

Tests used:
[1] = test system: Neonatal Rat Ventricular Myocytes (NRVMs); assay: Serum (FBS)-induced hypertrophy of Neonatal Rat Ventricular Myocytes in vitro; type: cell-based
Method: The cells were also treated with DMSO (light gray bars) or a vehicle (dark gray bars) as a negative control. The order of potency for inhibitors was DMSO<7MI<TSA<8MI. Viability was unchanged (not shown).
Next, the ability of 7MI and 8MI to inhibit hypertrophy in vitro was tested (FIG. 2A). […] However, fetal calf serum, which contained a rich variety of growth factors, was chosen as the most robust and multifactorial stimulus for cardiomyocyte growth available, reasoning that a similarly robust and powerful inhibitor would be required to block this hypertrophy.

a variety of cells = assay: Toxicity in the culture of a variety of cells; type: cell-based
[2] = test system: cardiac hypertrophy induced by TAC in C57/BL/6 mice; assay: TAC 21 days: cardiac mass, geometry, wall thickness, myocyte size (Example 4); type: in vivo; details: 21 days after TAC
Method: (§1) The effects of 8MI on hypertrophy in a model of moderate pressure overload were tested further (FIGS. 5A-5E). 8MI or its vehicle (DMSO) was administered over a range of concentrations immediately prior to and for 21 days following transverse aortic coarctation (TAC). All experiments were performed on 2-3 month old wild type C57/BL/6 mice. Cardiac hypertrophy was induced by TAC as described in Wei et. al. 2008. Pressure gradients induced by TAC were evaluated postoperatively by pulsed-wave Doppler echocardiography to confirm equivalent gradients in all animals (45±5 mmHg). 8MI was delivered via tail vein injection one day prior to surgical intervention and then daily for 21 days. Blood samples were obtained at sacrifice on day 21 after surgery, and serum was frozen at […] until analysis
Masson's Trichrome was used to visualize cardiac four-chamber anatomy. Paraffin embedded sections were used for staining (FIG. 5B). Representative wheat germ agglutinin (WGA)-stained sections of myocardium from the mice were prepared. For echocardiography (FIG. 5C), mice were placed under anesthesia with 40 mg/kg ketamine and 5 mg/kg xylocaine and secured in a supine position. Mice were evaluated using […] transducer on a Visual Sonics 770 High Resolution Imaging System. B-mode in the short and long axis view of the ventricle was used to evaluate wall motion defects of ventricle and M-mode in long axis view used for the interventricular septal thickness, posterior wall thickness and the left ventricular dimensions in systole and diastole.
Hematoxylin and Eosin (HE) and FITC conjugated WGA (from Invitrogen) were used to evaluate myocardial cell size (FIGS. 5D and 5E). The sizes of cells from at least 4 myocardial sections from 3 mice per condition were measured (FIG. 5E). WGA samples were counterstained with DAPI and images were merged from the DAPI and FITC channels.

[3] = test system: ventricular fibrosis after TAC in mice; assay: TAC 21 days: ventricular fibrosis, Masson's Trichrome (Example 5); type: in vivo; details: 21 days after TAC
From the text: Using cardiac tissue samples obtained from the same mice treated under the experimental conditions described in Example 4, Masson's Trichrome was used to stain fibrotic tissue (FIG. 6A). Fibrotic area was quantified and expressed relative to the total tissue area (FIG. 6B). Ventricular fibrosis was prominent in mice 21 days after TAC, but not in sham-operated mice (FIGS. 6A and 6B).

[4] = Serum chemistries in mice subjected to TAC and treated with 8MI (Example 6); type: in vivo; details: for ALT / BUN / Calcium / Creatinine / Glucose / Total Protein: serum, TAC
Method: as §1
Prior to sacrifice, serum was extracted from the blood of the mice treated as described in Example 4.

MEF2 = MEF2 acetylation in myocardial lysates, immunoprecipitation/Western (Example 9); type: in vivo, mice
Method: Acetyl-MEF2 and acetyl-GATA4 were determined as described in Example 9 in myocardial lysates of TAC- or sham-operated mice treated with the indicated doses of 8MI, or its vehicle (0), as indicated. […] MEF2 acetylation is increased by TAC and reduced by 8MI. Myocardial lysates were immunoprecipitated with either anti-pan MEF2 or GATA4 antibodies, and probed with antibodies against MEF2, GATA4 or acetyl-lysine (control). The quantified data shown in FIG. 9 is from 3 mice per group and normalized to total acetyl-lysine (western blots are not shown).
MEF2 acetylation was determined in myocardial tissue from sham- and TAC-operated mice in the presence of vehicle or 8MI, under the experimental conditions described in Example 4. Protein samples were collected in RIPA (Sigma). […] of protein samples were incubated with 5 μg of acetyl lysine or GATA4 antibodies (Upstate, Charlottesville, Va.) or MEF2 antibody (Santa Cruz Biotechnology, Santa Cruz, Calif.) (5 μg). The immune-complexes were captured using TrueBlot sepharose beads and subjected to Western analysis. The immune complexes were resolved on SDS-PAGE and transferred to nitrocellulose membranes. Membranes were blocked with 5% milk in 0.5% TBS-T for 1 hour at room temperature followed by incubation in primary antibody at appropriate dilutions overnight. […]

[5] = 8MI 5 mg/kg, individual mice #7-9
[6] = 8MI 20 mg/kg, individual mice #10-12
[7] = 8MI 40 mg/kg, individual mice #13-15

Nc1ccccc1NC(=O)CCCCCC(=O)Nc1cccc(Br)c1 [8MI]
viability ([1]; NRVMs (not shown)): unchanged
order of potency for inhibitors ([1]; NRVMs, FBS-induced growth): most potent inhibitor; also recorded: DMSO<7MI<TSA<8MI
growth response to Fetal Bovine Serum / serum-stimulated myocyte growth (hypertrophy) ([1]; NRVMs, pre-treatment with a range of doses): sufficient to block myocyte hypertrophy; also recorded: depressed growth response
concentration up to which no apparent toxicity was seen (a variety of cells): up to 20 μM
effect on heart weight in comparison to previously published results for TSA [2]: significantly superior effect
reduction of myocyte cross sectional area in comparison to previously published results for TSA [2]: significantly superior effect
HW/TL at the highest dose ([2]; 40 mg/kg): normal levels
TAC-induced increase of myocyte cross-sectional area / myocyte size ([2]; WGA-stained sections): effectively eliminated this 2.2-fold increase; also recorded: normalization of myocyte size
remodeling of the myocardium (four-chamber sections) ([2]; dose-dependent): prevented remodeling of the myocardium; also recorded: normalization of cardiac geometry
increase of echocardiographic wall thickness ([2]; highest dose of 8MI (vehicle 35.9%±1.0%)): 6.9%±1.4%
echocardiographic posterior wall thickness ([2]; indicated doses): normalization of echocardiographic posterior wall thickness
TAC-induced increase of heart weight (HW/TL) ([2]; indicated doses up to 40 mg/kg, tail vein daily): blunted the increase of heart weight in a dose-dependent manner; also recorded: normalization of cardiac mass
fibrotic response (fibrotic area relative to total tissue area) ([3]; dose range): significantly reduced in a dose-dependent manner; also recorded: reduces fibrosis
fibrotic response (fibrotic area relative to total tissue area) at the highest dosage ([3]; highest dosage): eliminated
tolerability from serum chemistries ([4]; TAC mice, 5-40 mg/kg, 21 days): well tolerated
mice with significant renal and/or hepatic dysfunction induced by TAC ([4]; mice receiving any dose of 8MI (control: 2 out of 3)): 1 out of 9
ALT [4, 5]: 47 U/L and 53 U/L and 58 U/L
BUN [4, 5]: 26 mg/dL and 21 mg/dL and 25 mg/dL
Calcium [4, 5]: 11.7 mg/dL and 9.7 mg/dL and 11 mg/dL
Creatinine [4, 5]: 0.2 mg/dL
Glucose [4, 5]: 375 mg/dL and 158 mg/dL and 294 mg/dL
Total Protein [4, 5]: 5.6 g/dL and 5.8 g/dL and 5.4 g/dL
ALT [4, 6]: 51 U/L and 73 U/L and 57 U/L
BUN [4, 6]: 21 mg/dL and 19 mg/dL and 28 mg/dL
Calcium [4, 6]: 9.9 mg/dL and 10.3 mg/dL and 11.1 mg/dL
Creatinine [4, 6]: 0.2 mg/dL
Glucose [4, 6]: 224 mg/dL and 177 mg/dL and 326 mg/dL
Total Protein [4, 6]: 5.3 g/dL and 5.6 g/dL and 6.0 g/dL
ALT [4, 7]: 56 U/L and 308 U/L and 60 U/L
BUN [4, 7]: 21 mg/dL and 26 mg/dL and 23 mg/dL
Calcium [4, 7]: 10.6 mg/dL and 8.7 mg/dL and 10.1 mg/dL
Creatinine [4, 7]: 0.3 mg/dL (2×) and 0.6 mg/dL
Glucose [4, 7]: 455 mg/dL and 140 mg/dL and 252 mg/dL
Total Protein [4, 7]: 6.2 g/dL and 5.5 g/dL and 5.7 g/dL
TAC-induced acetyl-MEF2 content (MEF2; TAC-operated mice, increasing doses of 8MI): reduced the acetyl-MEF2 content to level at or below those of the sham-operated mice; also recorded: reduced
total acetyl-MEF2 content, basal (MEF2; sham-operated mice, maximum dose (40 mg/kg) versus vehicle (DMSO), 40 mg/kg): not different; also recorded: does not reduce acetyl-MEF2 levels
